From ChEMBL document CHEMBL4118195, “Synthesis and profiling of benzylmorpholine 1,2,4,5-tetraoxane analogue N205: Towards tetraoxane scaffolds with potential for single dose cure of malaria” (Bioorg Med Chem, 2018)

Tests used:
Plasmodium falciparum [1] = experiment: Antimalarial activity against Plasmodium falciparum 3D7 infected in human erythrocytes after 48 hrs by SYBR Green I dye-based fluorescence assay; assay type: functional, organism-based; settings: 3D7, 48 h
[2] = Half life in rat blood by LC-MS method; assay type: ADME, tissue-based
[3] = Drug level in mouse liver microsomes treated with N205 at 5 uM after 60 mins by UPLC-MS analysis; assay type: ADME, microsome; settings: 1 h
[4] = Drug level in rat liver microsomes treated with N205 at 5 uM after 60 mins by UPLC-MS analysis; assay type: ADME, microsome; settings: 1 h
[5] = Drug level in human liver microsomes treated with N205 at 5 uM after 60 mins by UPLC-MS analysis; assay type: ADME, microsome; settings: 1 h
[6] = Retention time of the compound; assay type: physicochemical
[7] = Half life in rat blood after 4 hrs by LC-MS method; assay type: ADME, tissue-based
[8] = Solubility in PH 7.4 PBS buffer after 4 hrs by HPLC analysis; assay type: physicochemical
[9] = Protein binding in human liver microsomes at 1 uM by ultracentrifugation method; assay type: ADME, microsome; settings: read-out: PB
Plasmodium berghei [10] = experiment: Antimalarial activity against Plasmodium berghei infected in mouse assessed as mouse mean survival days at 30 mg/kg, po administered as single dose; assay type: functional
[11] = Solubility in pH 2 citric acid monophosphate buffer after 4 hrs by HPLC analysis; assay type: physicochemical
[12] = Solubility in pH 6.5 FaSSIF after 4 hrs by HPLC analysis; assay type: physicochemical
[13] = Clearance in Sprague-Dawley rat plasma at 100 mg/kg, po administered via gavage or administered as 10 mins infusion iv by LC/MS analysis; assay type: ADME, organism-based
[14] = Solubility in pH 5 FeSSIF after 4 hrs by HPLC analysis; assay type: physicochemical
[15] = Drug degradation in human blood after 4 hrs by LC-MS method; assay type: ADME, tissue-based; settings: read-out: Drug degradation
[16] = Volume of distribution at steady state in Sprague-Dawley rat plasma at 100 mg/kg, po administered via gavage or iv administered as 10 mins infusion by LC/MS analysis; assay type: ADME, organism-based; settings: read-out: Vdss
[17] = Solubility in 0.01 N HCl buffer at pH 2 after 4 hrs by HPLC analysis; assay type: physicochemical
[18] = Solubility in 0.1 N HCl buffer at pH 1 after 4 hrs by HPLC analysis; assay type: physicochemical
Plasmodium berghei [19] = experiment: Antimalarial activity against Plasmodium berghei infected in mouse assessed as reduction in parasitemia at 30 mg/kg, po administered as single dose measured on day 3 relative to control; assay type: functional; set-up: scale not given: the % may be the effect or the level left
[20] = Half life in iv dosed Sprague-Dawley rat plasma administered as 10 mins infusion by LC/MS analysis; assay type: ADME, organism-based
[21] = Protein binding in human plasma at 2000 ng/ml after 6 hrs by equilibrium dialysis method; assay type: ADME, cell-free; settings: read-out: PB
[22] = Aqueous solubility after 4 hrs by HPLC analysis; assay type: physicochemical; settings: water
Plasmodium falciparum [23] = experiment: Antimalarial activity against Plasmodium falciparum Pf3D70087/N9 infected in po dosed humanized NOD.Cg-Prkdcscid Il2rgtm1Wjl/SzJ mouse assessed as compound concentration in whole blood require to reduce parasitemia in peripheral blood by 90% administered as single dose measured on day 7 post infection by SYTO-16 dye-based flow cytometric analysis; assay type: functional, organism-based
[24] = Metabolic stability in rat blood after 2 to 4 hrs by LC-MS method; assay type: ADME, tissue-based
[25] = Metabolic stability in human blood after 2 to 4 hrs by LC-MS method; assay type: ADME, tissue-based
Plasmodium falciparum [26] = experiment: Antimalarial activity against Plasmodium falciparum Pf3D70087/N9 infected in po dosed humanized NOD.Cg-Prkdcscid Il2rgtm1Wjl/SzJ mouse assessed as reduction in parasitemia administered as single dose measured on day 7 post infection by SYTO-16 dye-based flow cytometric analysis; assay type: functional; settings: 168 h
[27] = Half life in Sprague-Dawley rat at 10 mg/kg, po; assay type: ADME, organism-based; settings: in vivo
Plasmodium falciparum [28] = experiment: Antimalarial activity against Plasmodium falciparum Pf3D70087/N9 infected in humanized NOD.Cg-Prkdcscid Il2rgtm1Wjl/SzJ mouse assessed as reduction in parasitemia administered 4 daily doses by SYTO-16 dye-based flow cytometric analysis; assay type: functional
[29] = Oral bioavailability in Sprague-Dawley rat at 100 mg/kg administered via gavage by LC/MS analysis; assay type: ADME, organism-based; settings: in vivo

In the case of `O=C(NCC1CCNCC1)c1ccc(C2CCC3(CC2)OOC2(OO3)C3CC4CC(C3)CC2C4)cc1` (centres undefined), the IC50 (Plasmodium falciparum [1]) is reported as 5.3 nM and the half-life [2] is reported as < 4 h.

For `NCCNC(=O)c1ccc(C2CCC3(CC2)OOC2(OO3)C3CC4CC(C3)CC2C4)cc1` (centres undefined), the IC50 (Plasmodium falciparum [1]) was 1.1 nM and the half-life [2] was < 4 h.

In the case of `OC1CCC(c2ccc(CN3CCOCC3)cc2)CC1` (centres undefined), the Drug metabolism [3] is reported as “Metabolite_Detected”, the Drug metabolism [4] is reported as “Metabolite_Detected” and the Drug metabolism [5] is reported as “Metabolite_Detected”. It also gave a Retention_time [6] of 0.86 min.

With `O=C(c1ccc(C2CCC3(CC2)OOC2(OO3)C3CC4CC(C3)CC2C4)cc1)N1CCSCC1` (centres undefined) the IC50 (Plasmodium falciparum [1]) was 15 nM and the half-life [2] was < 4 h.

In the case of `O=C(c1ccc(C2CCC3(CC2)OOC2(OO3)C3CC4CC(C3)CC2C4)cc1)N1CCOCC1` (centres undefined), the IC50 (Plasmodium falciparum [1]) is reported as 7.1 nM and the half-life [2] is reported as < 4 h.

With `CS(=O)(=O)O.c1cc(C2CCC3(CC2)OOC2(OO3)C3CC4CC(C3)CC2C4)ccc1CN1CCOCC1` (centres undefined) the half-life [7] was 8 h, the solubility at 4 h [8] was < 0.1 µg/mL and the fraction unbound at 1 µM [9] was < 0.001. The MSD (Plasmodium berghei [10]) was 25 days, the solubility at 4 h [11] was > 9000 µg/mL and the solubility at 4 h [12] was 18 µg/mL. The clearance [13] was 77 mL/min/kg, the solubility ([14]; simulated gi fluid, pH 5, 4 h) was 760 µg/mL and the metabolised at 4 h [15] was 10%. It also gave a Vd [16] of 11 L/kg, a solubility at 4 h [17] of 172 µg/mL and a solubility at 4 h [18] of 17 µg/mL. For the same compound, the Activity (Plasmodium berghei [19]) was 99.3%, the half-life [20] was 6.35 h and the fraction unbound at 6 h, 2000 ng/ml [21] was < 0.001. The solubility at 4 h [22] was > 9000 µg/mL.

For `c1cc(C2CCC3(CC2)OOC2(O3)C3CC4CC(C3)CC2C4)ccc1OCCN1CCOCC1` (centres undefined) [listing 1 of 2 here], the AUCED90 (Plasmodium falciparum [23]) was 0.68 µg·h/mL.

Compound `CC(C)(N)CNC(=O)CC1CCC2(CC1)OOC1(O2)C2CC3CC(C2)CC1C3` (centres undefined) has an MSD (Plasmodium berghei [10]) of 10.2 days and an Activity (Plasmodium berghei [19]) of 99.98%.

In the case of `NC1CN(C(=O)c2ccc(C3CCC4(CC3)OOC3(OO4)C4CC5CC(C4)CC3C5)cc2)C1` (centres undefined), the IC50 (Plasmodium falciparum [1]) is reported as 33 nM and the half-life [2] is reported as < 4 h.

For `CNCCNC(=O)c1ccc(C2CCC3(CC2)OOC2(OO3)C3CC4CC(C3)CC2C4)cc1` (centres undefined), the IC50 (Plasmodium falciparum [1]) was 0.84 nM and the half-life [2] was < 4 h.

With `FC1CCN(Cc2ccc(C3CCC4(CC3)OOC3(OO4)C4CC5CC(C4)CC3C5)cc2)CC1` (centres undefined) the IC50 (Plasmodium falciparum [1]) was 1.8 nM, the Stability [24] was “Stable” and the Stability [25] was “Stable”.

For `c1cc(C2CCC3(CC2)OOC2(O3)C3CC4CC(C3)CC2C4)ccc1OCCN1CCOCC1` (centres undefined) [listing 2 of 2 here], the MSD (Plasmodium berghei [10]) was 30 days, the IC50 (Plasmodium falciparum [1]) was 8 nM and the ED90 (Plasmodium falciparum [26]) was 6.2 mg/kg. For the same compound, the Activity (Plasmodium berghei [19]) was 99.4%.

For `O=C1CCC(c2ccc(CN3CCOCC3)cc2)CC1`, the Drug metabolism [3] was “Metabolite_Detected”, the Drug metabolism [4] was “Metabolite_Detected” and the Drug metabolism [5] was “Metabolite_Detected”. It also gave a Retention_time [6] of 0.84 min.

For `CN1CCN(C2CCN(C(=O)CC3CCC4(CC3)OOC3(OO4)C4CC5CC(C4)CC3C5)CC2)CC1` (centres undefined), the MSD (Plasmodium berghei [10]) was 11.4 days, the half-life [27] was 3.5 h and the Activity (Plasmodium berghei [19]) was 99.98%.

In the case of `O=C(c1ccc(C2CCC3(CC2)OOC2(OO3)C3CC4CC(C3)CC2C4)cc1)N1CCCNCC1` (centres undefined), the IC50 (Plasmodium falciparum [1]) is reported as 0.82 nM and the half-life [2] is reported as < 4 h.

In the case of `CN1CCN(C(=O)c2ccc(C3CCC4(CC3)OOC3(OO4)C4CC5CC(C4)CC3C5)cc2)CC1` (centres undefined), the IC50 (Plasmodium falciparum [1]) is reported as 6.4 nM and the half-life [2] is reported as < 4 h.

In the case of `OCCNCc1ccc(C2CCC3(CC2)OOC2(OO3)C3CC4CC(C3)CC2C4)cc1` (centres undefined), the Drug metabolism [3] is reported as “Metabolite_Detected”, the Drug metabolism [4] is reported as “Metabolite_Detected” and the Drug metabolism [5] is reported as “Metabolite_Detected”. It also gave a Retention_time [6] of 3.54 min.

In the case of `O=C(c1ccc(C2CCC3(CC2)OOC2(OO3)C3CC4CC(C3)CC2C4)cc1)N1CCNCC1` (centres undefined), the MSD (Plasmodium berghei [10]) is reported as 10 days, the IC50 (Plasmodium falciparum [1]) is reported as 3 nM and the half-life [2] is reported as < 4 h. It also gave an Activity (Plasmodium berghei [19]) of 99%.

In the case of `C[C@H]1[C@H](OC(=O)CCC(=O)O)O[C@@H]2O[C@@]3(C)CC[C@H]4[C@H](C)CC[C@@H]1[C@@]24OO3` [ARTESUNATE], the MSD (Plasmodium berghei [10]) is reported as 6.8 days, the ED90 (Plasmodium falciparum [28]) is reported as 10 mg/kg and the Activity (Plasmodium berghei [19]) is reported as 99.09%.

In the case of `c1cc(C2CCC3(CC2)OOC2(OO3)C3CC4CC(C3)CC2C4)ccc1CN1CCOCC1` (centres undefined), the AUCED90 (Plasmodium falciparum [23]) is reported as < 0.75 µg·h/mL.

In the case of `CS(=O)(=O)O.FC1CCN(Cc2ccc(C3CCC4(CC3)OOC3(OO4)C4CC5CC(C4)CC3C5)cc2)CC1` (centres undefined), the MSD (Plasmodium berghei [10]) is reported as 13 days and the Activity (Plasmodium berghei [19]) is reported as 99.98%.

With `CS(=O)(=O)O.c1cc(C2CCC3(CC2)OOC2(O3)C3CC4CC(C3)CC2C4)ccc1OCCN1CCOCC1` (centres undefined) the solubility at 4 h [11] was > 8000 µg/mL, the solubility at 4 h [12] was 120 µg/mL and the solubility at 4 h ([14]; FeSSIF, pH 5) was > 1500 µg/mL. It also gave a Vd [16] of 18 L/kg, a solubility at 4 h [17] of 240 µg/mL and a solubility at 4 h [18] of 34 µg/mL. It also gave a bioavailability [29] of 100% and a solubility at 4 h [22] of 6800 µg/mL.

With `NC1CCN(C(=O)c2ccc(C3CCC4(CC3)OOC3(OO4)C4CC5CC(C4)CC3C5)cc2)CC1` (centres undefined) the MSD (Plasmodium berghei [10]) was 8 days, the IC50 (Plasmodium falciparum [1]) was 4.2 nM and the half-life [2] was < 4 h. It also gave an Activity (Plasmodium berghei [19]) of 99%.
